#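 Grown in 96-well plates, cells were treated for 48 hours with each compound at five concentrations. Insufficient inhibition: endpoint recorded as highest concentration tested. GI50: concentration for 50% inhibition of growth.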 Calls of active or inactive are those of the source. Rule as the data show it: active = GI50 up to about 1.1 µM and inactive = higher.
# Columns and labels:
# Assay in all cases: NCI-60 cell line screen, 48 h
# NCI-H226 = system: NCI-H226
# U-251 = system: U-251
# UO-31 = system: UO-31
# UACC-62 = system: UACC-62
# SF-539 = system: SF-539
# Malme-3M = system: Malme-3M
# K562 = system: K562
# SK-MEL-5 = system: SK-MEL-5
# SW-620 = system: SW-620
# NCI-H23 = system: NCI-H23
# SNB-78 = system: SNB-78
# OVCAR-4 = system: OVCAR-4
# SF-295 = system: SF-295
# EKVX = system: EKVX
# SK-OV-3 = system: SK-OV-3
# HCT-116 = system: HCT-116
# 786-0 = system: 786-0
# MOLT-4 = system: MOLT-4
# A549 = system: A549
# UACC-257 = system: UACC-257
# DLD-1 = system: DLD-1
# OVCAR-8 = system: OVCAR-8
# A498 = system: A498
# HL-60 = system: HL-60
# LOX IMVI = system: LOX IMVI
# M19-MEL = system: M19-MEL
# SK-MEL-2 = system: SK-MEL-2
# SN12C = system: SN12C
# OVCAR-3 = system: OVCAR-3
# HCC 2998 = system: HCC 2998
# HCT-15 = system: HCT-15
# HOP-18 = system: HOP-18
# COLO 205 = system: COLO 205
# HT-29 = system: HT-29
# CCRF-CEM = system: CCRF-CEM
# TK-10 = system: TK-10
# IGROV-1 = system: IGROV-1
# OVCAR-5 = system: OVCAR-5
# SNB-75 = system: SNB-75
# M14 = system: M14
# CAKI-1 = system: CAKI-1
# DMS-114 = system: DMS-114
# HOP-92 = system: HOP-92
# KM12 = system: KM12
# RXF 393 = system: RXF 393
# SNB-19 = system: SNB-19
# DMS-273 = system: DMS-273
# SF-268 = system: SF-268
# HOP-62 = system: HOP-62
# ACHN = system: ACHN
# SK-MEL-28 = system: SK-MEL-28
# NCI-H460 = system: NCI-H460
# RPMI-8226 = system: RPMI-8226
# KM-20L2 = system: KM-20L2
# LXFL 529 = system: LXFL 529
# SR = system: SR
# NCI-H522 = system: NCI-H522
smiles,measurement,setting,value
COc1cccc(C2SCc3nc4ccccc4n32)c1 (stereo unspecified),GI50,NCI-H226,51.4 µM (inactive)
same,GI50,U-251,76.6 µM (inactive)
same,GI50,UO-31,22.1 µM (inactive)
same,GI50,UACC-62,49.9 µM (inactive)
same,GI50,SF-539,> 100 µM (inactive)
same,GI50,Malme-3M,54.6 µM (inactive)
same,GI50,K562,45.4 µM (inactive)
same,GI50,SK-MEL-5,21.1 µM (inactive)
same,GI50,SW-620,46.6 µM (inactive)
same,GI50,NCI-H23,35 µM (inactive)
same,GI50,SNB-78,> 100 µM (inactive)
same,GI50,OVCAR-4,> 100 µM (inactive)
same,GI50,SF-295,35.7 µM (inactive)
same,GI50,EKVX,46.3 µM (inactive)
same,GI50,SK-OV-3,65.3 µM (inactive)
same,GI50,HCT-116,39.7 µM (inactive)
same,GI50,786-0,> 100 µM (inactive)
same,GI50,MOLT-4,66.1 µM (inactive)
same,GI50,A549,34.8 µM (inactive)
same,GI50,UACC-257,44.3 µM (inactive)
same,GI50,DLD-1,88.1 µM (inactive)
same,GI50,OVCAR-8,57.9 µM (inactive)
same,GI50,A498,38 µM (inactive)
same,GI50,HL-60,30.1 µM (inactive)
same,GI50,LOX IMVI,54.6 µM (inactive)
same,GI50,M19-MEL,46.6 µM (inactive)
same,GI50,SK-MEL-2,56.2 µM (inactive)
same,GI50,SN12C,99.1 µM (inactive)
same,GI50,OVCAR-3,35.2 µM (inactive)
same,GI50,HCC 2998,45.6 µM (inactive)
same,GI50,HCT-15,38.8 µM
same,GI50,HOP-18,> 100 µM (inactive)
same,GI50,COLO 205,> 100 µM (inactive)
same,GI50,HT-29,41.9 µM (inactive)
same,GI50,CCRF-CEM,> 100 µM (inactive)
same,GI50,TK-10,14.7 µM (inactive)
same,GI50,IGROV-1,45.5 µM (inactive)
same,GI50,OVCAR-5,58.9 µM (inactive)
same,GI50,SNB-75,53 µM (inactive)
same,GI50,M14,77.1 µM (inactive)
same,GI50,CAKI-1,37.9 µM (inactive)
same,GI50,DMS-114,21.3 µM (inactive)
same,GI50,HOP-92,12.2 µM (inactive)
same,GI50,KM12,56.4 µM (inactive)
same,GI50,RXF 393,53.6 µM (inactive)
same,GI50,SNB-19,> 100 µM (inactive)
same,GI50,DMS-273,39.1 µM (inactive)
same,GI50,SF-268,73.1 µM (inactive)
same,GI50,HOP-62,> 100 µM (inactive)
same,GI50,ACHN,39.1 µM (inactive)
same,GI50,SK-MEL-28,81.3 µM (inactive)
same,GI50,NCI-H460,> 100 µM (inactive)
OC(Cn1cncn1)(Cn1cncn1)c1ccc(Cl)cc1Cl,GI50,RPMI-8226,> 100 µM (inactive)
same,GI50,NCI-H226,> 100 µM (inactive)
same,GI50,U-251,> 100 µM (inactive)
same,GI50,UO-31,> 100 µM (inactive)
same,GI50,UACC-62,> 100 µM (inactive)
same,GI50,SF-539,> 100 µM (inactive)
same,GI50,Malme-3M,> 100 µM (inactive)
same,GI50,K562,> 100 µM (inactive)
same,GI50,SK-MEL-5,> 100 µM (inactive)
same,GI50,SW-620,> 100 µM (inactive)
same,GI50,NCI-H23,> 100 µM (inactive)
same,GI50,SNB-78,> 100 µM (inactive)
same,GI50,OVCAR-4,> 100 µM (inactive)
same,GI50,SF-295,> 100 µM (inactive)
same,GI50,SK-OV-3,> 100 µM (inactive)
same,GI50,HCT-116,> 100 µM (inactive)
same,GI50,786-0,> 100 µM (inactive)
same,GI50,MOLT-4,> 100 µM (inactive)
same,GI50,A549,> 100 µM (inactive)
same,GI50,UACC-257,> 100 µM (inactive)
same,GI50,DLD-1,> 100 µM (inactive)
same,GI50,OVCAR-8,> 100 µM (inactive)
same,GI50,A498,> 100 µM (inactive)
same,GI50,HL-60,> 100 µM (inactive)
same,GI50,LOX IMVI,> 100 µM (inactive)
same,GI50,M19-MEL,> 100 µM (inactive)
same,GI50,SK-MEL-2,> 100 µM (inactive)
same,GI50,SN12C,> 100 µM (inactive)
same,GI50,OVCAR-3,> 100 µM (inactive)
same,GI50,HCT-15,> 100 µM
same,GI50,HOP-18,> 100 µM (inactive)
same,GI50,KM-20L2,> 100 µM (inactive)
same,GI50,COLO 205,> 100 µM (inactive)
same,GI50,HT-29,> 100 µM (inactive)
same,GI50,CCRF-CEM,> 100 µM (inactive)
same,GI50,TK-10,> 100 µM (inactive)
same,GI50,IGROV-1,> 100 µM (inactive)
same,GI50,OVCAR-5,> 100 µM (inactive)
same,GI50,SNB-75,> 100 µM (inactive)
same,GI50,M14,> 100 µM (inactive)
same,GI50,CAKI-1,> 100 µM (inactive)
same,GI50,LXFL 529,> 100 µM (inactive)
same,GI50,DMS-114,> 100 µM (inactive)
same,GI50,HOP-92,> 100 µM (inactive)
same,GI50,SR,> 100 µM (inactive)
same,GI50,KM12,> 100 µM (inactive)
same,GI50,RXF 393,> 100 µM (inactive)
same,GI50,NCI-H522,> 100 µM (inactive)
same,GI50,DMS-273,> 100 µM (inactive)
same,GI50,SF-268,> 100 µM (inactive)
same,GI50,HOP-62,> 100 µM (inactive)
same,GI50,ACHN,> 100 µM (inactive)
same,GI50,SK-MEL-28,> 100 µM (inactive)
same,GI50,NCI-H460,> 100 µM (inactive)

# Reference: ChEMBL document CHEMBL1201862, “PubChem BioAssay data set” (2004)
